# Laboratory results taken from US20030032793A1, “Gene of PGT of human brain type” (priority 1999, published 2003).
# Tested on: Rat Cerebral Cortex Neuronal Culture
# Experiment: Apoptosis induction by Amyloid β peptide (Aβ 25-35) in PGT 40/PGT 70-transfected neurons and inhibiting action of PGE 1
# Type: cell-based
# Settings: Aβ 25-35 exposure 24 hours
# Description: PGT 40 or PGT 70 cDNA was inserted into pTracer-SV 40 vector (Invitrogen) to construct an expression vector. PGT 40 means the brain-type PGT of the present invention. PGT 70 means the lung-type PGT which was disclosed in the prior art literature.
# Fetus of 17 days age (viviparous) was ejected from pregnant rat of SD strain and, in an ice-cold L-15 medium (Invitrogen), cerebral cortex was collected from brain of the fetus. After it was finely cut by scissors, cells were dispersed using a kit for dispersing the neurons (Sumilon), sowed on a polyethyleneimine-coated cover glass (diameter: 12 mm; manufactured by Asahi Technoglass) in a living cell density of 1.6×10^5 cells/cm^2 and cultured (at 37° C. with 5% of CO2). […]
# After the cells were fixed (at room temperature for 5 minutes) with a 10% neutral buffered formalin solution, they were stained with 0.01 mg/mL Hoechst 33342 (being dissolved in PBS(−); Molecular Probe) and, under a fluorescent microscope, […] total cell numbers and apoptosis cells (the cells which were aggregated and fragmented by chromatin) were counted in random 20 fields for one example whereupon the apoptosis-positive cell percentage (%) was calculated. […]
Molecule,"effect of PGT expression on anti-apoptosis action of PGE1 (apoptosis-positive cell percentage / apoptosis inhibiting rate) (neurons transfected with PGT expression vector, PGE 1 0.01, 0.1, 1 and 10 μM, Hoechst 33342 staining)","action of PGE1 on Aβ-induced apoptosis (PGE 1 0.01, 0.1, 1 and 10 μM added together with Aβ)"
"PGT40: the brain-type PGT (prostaglandin transporter) of the present invention, SEQ ID NO: 3, expressed from pTracer-SV 40 vector",accelerate anti-apotosis action of PGE1,
CCCCC[C@H](O)/C=C/[C@H]1[C@H](O)CC(=O)[C@@H]1CCCCCCC(=O)O [PGE1],,anti-apotosis action
